The values below come from patent US20240109917A1 (ACTELION PHARMACEUTICALS LTD, priority 2020, published 2024).

SMILES strings stand for the structures.

What is called IC50 is the concentration that inhibits the measured activity by half.

Chain of PDGFRβ (Q05030 32-1097): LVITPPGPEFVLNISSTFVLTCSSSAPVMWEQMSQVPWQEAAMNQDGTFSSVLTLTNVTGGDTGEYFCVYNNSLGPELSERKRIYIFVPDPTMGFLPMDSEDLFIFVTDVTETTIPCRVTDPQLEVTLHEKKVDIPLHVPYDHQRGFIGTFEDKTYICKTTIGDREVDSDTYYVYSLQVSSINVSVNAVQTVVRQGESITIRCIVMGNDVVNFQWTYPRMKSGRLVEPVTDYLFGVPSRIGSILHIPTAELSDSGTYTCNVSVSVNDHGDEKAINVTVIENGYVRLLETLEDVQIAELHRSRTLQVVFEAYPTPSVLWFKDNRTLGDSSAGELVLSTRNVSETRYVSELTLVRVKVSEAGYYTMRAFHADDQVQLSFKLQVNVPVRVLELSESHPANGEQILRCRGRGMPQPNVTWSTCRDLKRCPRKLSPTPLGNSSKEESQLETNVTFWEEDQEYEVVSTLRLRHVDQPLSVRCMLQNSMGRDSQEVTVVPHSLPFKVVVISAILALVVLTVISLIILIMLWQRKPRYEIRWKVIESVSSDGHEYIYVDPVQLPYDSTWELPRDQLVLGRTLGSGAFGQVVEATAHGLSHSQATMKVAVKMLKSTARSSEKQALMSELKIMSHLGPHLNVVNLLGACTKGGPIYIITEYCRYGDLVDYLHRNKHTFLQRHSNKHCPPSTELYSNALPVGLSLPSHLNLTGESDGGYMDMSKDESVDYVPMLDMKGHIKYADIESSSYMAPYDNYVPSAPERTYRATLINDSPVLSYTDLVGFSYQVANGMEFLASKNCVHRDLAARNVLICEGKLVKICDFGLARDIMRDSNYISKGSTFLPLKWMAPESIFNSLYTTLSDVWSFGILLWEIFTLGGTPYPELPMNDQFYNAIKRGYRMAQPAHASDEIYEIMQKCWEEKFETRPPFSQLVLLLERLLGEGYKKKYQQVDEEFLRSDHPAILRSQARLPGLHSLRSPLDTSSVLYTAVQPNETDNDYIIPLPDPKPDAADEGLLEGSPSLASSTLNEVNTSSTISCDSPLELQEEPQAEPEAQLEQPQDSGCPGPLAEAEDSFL

The assay has as its target PDGFRβ (Rattus norvegicus (Rat), UniProt Q05030). The assay can be described thus: PDGFRβ Cellular Assay (PDGFRb P-Y751 HTRF in A10 cells stimulated with PDGF-BB). Type of assay: cell-based. As to conditions: read-out: PDGFR Cellular IC50. In outline: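 Phospho-Y751 PDGFRβ was measured by HTRF in lysates of A10 rat cells. Cells received compound for 3 hours before PDGF-BB stimulation (100 ng/mL working stock).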
(Time-resolved FRET reads energy transfer from a long-lived donor to a nearby acceptor.)
Take `Cc1ncc(NC(=O)CN2CCn3ccnc3C2)cc1NC(=O)c1cnn2cc(-c3cnn(C)c3)sc12` [Example 75, N-(5-(2-(5,6-dihydroimidazo[1,2-a]pyrazin-7 (8H)-yl)acetamido)-2-methylpyridin-3-yl)-2-(1-methyl-1H-pyrazol-4-yl)pyrazolo[5,1-b]thiazole-7-carboxamide]: the IC50 turned out to be 2750 nM.
Take `Cc1ncc(NC(=O)CNCC(C)C)cc1NC(=O)c1cnn2cc(-c3cnn4c3CCC4)sc12` [Example 493, 2-(5,6-dihydro-4H-pyrrolo[1,2-b]pyrazol-3-yl)-N-(5-(2-(isobutylamino)acetamido)-2-methylpyridin-3-yl)pyrazolo[5,1-b]thiazole-7-carboxamide]: the IC50 was determined as 7 nM.
In the case of `Cc1ncc(NC(=O)CN2[C@H](C)COC[C@@H]2C)cc1NC(=O)c1cnn2cc(-c3cnn(C)c3)sc12` [Example 71, N-(5-(2-((3S,5R)-3,5-dimethylmorpholino)acetamido)-2-methylpyridin-3-yl)-2-(1-methyl-1H-pyrazol-4-yl)pyrazolo[5,1-b]thiazole-7-carboxamide], the IC50 stood at 90.9 nM.
Take `Cc1ncc(NC(=O)CN2Cc3cccnc3C2)cc1NC(=O)c1cnn2cc(-c3cnn(C)c3)sc12` [Example 48, N-(5-(2-(5H-pyrrolo[3,4-b]pyridin-6 (7H)-yl)acetamido)-2-methylpyridin-3-yl)-2-(1-methyl-1H-pyrazol-4-yl)pyrazolo[5,1-b]thiazole-7-carboxamide]: the IC50 came to 49.3 nM.
The value for `Cc1ncc(NC(=O)CNC2(C)CCC2)cc1NC(=O)c1cnn2cc(-c3cnn4c3OCCC4)sc12` [Example 495, 2-(6,7-dihydro-5H-pyrazolo[5,1-b][1,3]oxazin-3-yl)-N-(2-methyl-5-(2-((1-methylcyclobutyl)amino)acetamido)pyridin-3-yl)pyrazolo[5,1-b]thiazole-7-carboxamide] was 3.8 nM.
In the case of `Cc1ncc(NC(=O)CN2CCOCC2)cc1NC(=O)c1cnn2cc(-c3cnn(C)c3)sc12` [Example 55, 2-(1-methyl-1H-pyrazol-4-yl)-N-(2-methyl-5-(2-morpholinoacetamido)pyridin-3-yl)pyrazolo[5,1-b]thiazole-7-carboxamide], the IC50 amounted to 87.1 nM.
Regarding `Cc1ncc(NC(=O)CN2CCc3cnccc3C2)cc1NC(=O)c1cnn2cc(-c3cnn(C)c3)sc12` [Example 62, N-(5-(2-(3,4-dihydro-2,6-naphthyridin-2 (1H)-yl)acetamido)-2-methylpyridin-3-yl)-2-(1-methyl-1H-pyrazol-4-yl)pyrazolo[5,1-b]thiazole-7-carboxamide], the IC50 is 111 nM.
With `Cc1ncc(NC(=O)CCN2CCCC2(C)C)cc1NC(=O)c1cnn2cc(-c3cnn(CCO)c3)sc12` [Example 88, N-(5-(3-(2,2-dimethylpyrrolidin-1-yl)propanamido)-2-methylpyridin-3-yl)-2-(1-(2-hydroxyethyl)-1H-pyrazol-4-yl)pyrazolo[5,1-b]thiazole-7-carboxamide] the figure was 141 nM; with `COCCn1cc(-c2cn3ncc(C(=O)Nc4cc(NC(=O)CCN5CCC6(CCC6)C5)cnc4C)c3s2)cn1` [Example 90, N-(5-(3-(6-azaspiro[3.4]octan-6-yl)propanamido)-2-methylpyridin-3-yl)-2-(1-(2-methoxyethyl)-1H-pyrazol-4-yl)pyrazolo[5,1-b]thiazole-7-carboxamide], 19.9 nM; with `COCCn1cc(-c2cn3ncc(C(=O)Nc4cc(NC(=O)CCN5C[C@@H]6CC[C@H]5C6)cnc4C)c3s2)cn1` [Example 92, N-(5-(3-((1S,4R)-2-azabicyclo[2.2.1]heptan-2-yl)propanamido)-2-methylpyridin-3-yl)-2-(1-(2-methoxyethyl)-1H-pyrazol-4-yl)pyrazolo[5,1-b]thiazole-7-carboxamide], 122 nM.
Turning to `Cc1ncc(NC(=O)CN2CCCOCC2)cc1NC(=O)c1cnn2cc(-c3cnn(C)c3)sc12` [Example 80, N-(5-(2-(1,4-oxazepan-4-yl)acetamido)-2-methylpyridin-3-yl)-2-(1-methyl-1H-pyrazol-4-yl)pyrazolo[5,1-b]thiazole-7-carboxamide], the IC50 turned out to be 37.8 nM.
For `CC[C@@H]1COCCN1CC(=O)Nc1cnc(C)c(NC(=O)c2cnn3cc(-c4cnn(C)c4)sc23)c1` [Example 69, (R)—N-(5-(2-(3-ethylmorpholino)acetamido)-2-methylpyridin-3-yl)-2-(1-methyl-1H-pyrazol-4-yl)pyrazolo[5,1-b]thiazole-7-carboxamide], the IC50 was found to be 12.1 nM.
Take `COCCn1cc(-c2cn3ncc(C(=O)Nc4cc(NC(=O)C(C)(C)CN5CCCC5(C)C)cnc4C)c3s2)cn1` [Example 488, N-(5-(3-(2,2-dimethylpyrrolidin-1-yl)-2,2-dimethyl-propanamido)-2-methylpyridin-3-yl)-2-(1-(2-methoxyethyl)-1H-pyrazol-4-yl)pyrazolo[5,1-b]thiazole-7-carboxamide]: the IC50 was found to be 375 nM.
Consider `Cc1ncc(NC(=O)CN2CCCCC23CC3)cc1NC(=O)c1cnn2cc(-c3cnn(CCO)c3)sc12` [Example 86, N-(5-(2-(4-azaspiro[2.5]octan-4-yl)acetamido)-2-methylpyridin-3-yl)-2-(1-(2-hydroxyethyl)-1H-pyrazol-4-yl)pyrazolo[5,1-b]thiazole-7-carboxamide], for which the IC50 worked out at 18.4 nM.
Regarding `COCCn1cc(-c2cn3ncc(C(=O)Nc4cc(NC(=O)CCN5CCC(C)(C)C5)cnc4C)c3s2)cn1` [Example 89, N-(5-(3-(3,3-dimethylpyrrolidin-1-yl)propanamido)-2-methylpyridin-3-yl)-2-(1-(2-methoxyethyl)-1H-pyrazol-4-yl)pyrazolo[5,1-b]thiazole-7-carboxamide], the IC50 stood at 26.2 nM.
In the case of `Cc1ncc(NC(=O)CN2CCOCC23CCC3)cc1NC(=O)c1cnn2cc(-c3cnn(C)c3)sc12` [Example 78, N-(5-(2-(8-oxa-5-azaspiro[3.5]nonan-5-yl)acetamido)-2-methylpyridin-3-yl)-2-(1-methyl-1H-pyrazol-4-yl)pyrazolo[5,1-b]thiazole-7-carboxamide], the IC50 stood at 12.1 nM.
